The values that follow are results of earlier work, collected in patent US6998391B2, “Method for treating diseases associated with abnormal kinase activity” (SuperGen.Inc., priority 2002, dated 2006).

Counter-ions that a name gives are not always drawn. Like-named read-outs stand apart in the source and are kept apart here. Where no end group is shown, it is not given here. Bounds are passed on as bounds.

In data set [1] the test system is prostate cancer cells and osteoblasts. As to conditions: various in vitro and in vivo models.
Another data set concerns the target T1, JAK3 (Homo sapiens, UniProt P52333).
T1 sequence (P52333 1-1124): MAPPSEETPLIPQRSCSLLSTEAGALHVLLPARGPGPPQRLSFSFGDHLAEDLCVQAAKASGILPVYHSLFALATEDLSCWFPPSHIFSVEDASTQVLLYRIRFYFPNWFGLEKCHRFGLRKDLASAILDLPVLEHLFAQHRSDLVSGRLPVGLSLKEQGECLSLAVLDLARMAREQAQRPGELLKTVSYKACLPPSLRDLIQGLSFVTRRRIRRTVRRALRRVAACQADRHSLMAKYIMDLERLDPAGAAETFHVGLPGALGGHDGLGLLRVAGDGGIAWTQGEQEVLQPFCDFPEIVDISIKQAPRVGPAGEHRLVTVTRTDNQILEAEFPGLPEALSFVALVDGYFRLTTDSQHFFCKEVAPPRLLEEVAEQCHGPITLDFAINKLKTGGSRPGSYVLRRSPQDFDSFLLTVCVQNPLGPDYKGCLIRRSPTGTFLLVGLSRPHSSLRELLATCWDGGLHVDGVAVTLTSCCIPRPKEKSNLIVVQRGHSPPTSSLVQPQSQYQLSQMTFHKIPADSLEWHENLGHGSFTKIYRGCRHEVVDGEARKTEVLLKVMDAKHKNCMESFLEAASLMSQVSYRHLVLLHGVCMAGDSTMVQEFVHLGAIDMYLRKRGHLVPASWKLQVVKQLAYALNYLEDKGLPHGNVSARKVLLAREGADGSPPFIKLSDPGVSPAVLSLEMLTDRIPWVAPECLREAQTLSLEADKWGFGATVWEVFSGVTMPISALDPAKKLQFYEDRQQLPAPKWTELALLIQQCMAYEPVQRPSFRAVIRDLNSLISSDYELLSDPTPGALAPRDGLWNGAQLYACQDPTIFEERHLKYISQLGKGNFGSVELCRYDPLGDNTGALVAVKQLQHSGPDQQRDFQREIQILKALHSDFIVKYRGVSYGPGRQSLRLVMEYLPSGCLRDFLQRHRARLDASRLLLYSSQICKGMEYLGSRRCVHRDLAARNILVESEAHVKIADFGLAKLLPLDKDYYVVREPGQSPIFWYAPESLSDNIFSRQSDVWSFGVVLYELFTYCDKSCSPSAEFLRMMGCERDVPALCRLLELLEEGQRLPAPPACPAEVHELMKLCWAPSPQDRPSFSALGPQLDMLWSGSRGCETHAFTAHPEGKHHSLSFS
The following applies: dose-dependent fashion.

The subject of data set [2] is Syk.
Data set [3] concerns erbB receptor tyrosine kinase family. As to conditions: human cancer cell lines.
Data set [4] concerns platelet-derived growth factor receptor, fibroblast growth factor receptor, and insulin receptor. As to conditions: even at high concentrations.
The subject of the next data set is tumor microvessels. The following applies: mouse, in vivo.
For a further data set, the target named is T2, ZAP-70 (Homo sapiens, UniProt P43403).
T2 sequence (P43403 1-619): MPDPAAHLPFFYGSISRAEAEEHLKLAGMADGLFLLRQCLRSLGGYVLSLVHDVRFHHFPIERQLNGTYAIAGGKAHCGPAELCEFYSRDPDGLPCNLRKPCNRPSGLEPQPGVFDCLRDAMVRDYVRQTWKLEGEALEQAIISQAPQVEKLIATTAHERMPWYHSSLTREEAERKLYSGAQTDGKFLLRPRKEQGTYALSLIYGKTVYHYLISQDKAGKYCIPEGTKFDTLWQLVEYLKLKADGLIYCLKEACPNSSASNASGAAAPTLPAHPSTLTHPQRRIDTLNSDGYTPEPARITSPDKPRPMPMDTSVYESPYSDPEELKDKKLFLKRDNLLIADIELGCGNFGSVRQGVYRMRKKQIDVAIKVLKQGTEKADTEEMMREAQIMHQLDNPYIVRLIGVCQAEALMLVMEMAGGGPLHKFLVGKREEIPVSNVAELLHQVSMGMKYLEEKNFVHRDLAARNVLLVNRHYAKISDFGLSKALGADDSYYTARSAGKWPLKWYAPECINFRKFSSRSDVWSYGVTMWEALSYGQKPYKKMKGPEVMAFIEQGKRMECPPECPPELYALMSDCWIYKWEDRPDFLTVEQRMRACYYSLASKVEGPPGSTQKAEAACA

The target of data set [5] is Syk (Homo sapiens, UniProt P43405).
The next data set addresses Lck (Homo sapiens, UniProt P06239).
For the next data set, the system named is ERK1. The following applies: low doses.
Where [6] appears, read: patients with chronic phase CML.

Sequence of Lck (P06239 whole entry, species assumed): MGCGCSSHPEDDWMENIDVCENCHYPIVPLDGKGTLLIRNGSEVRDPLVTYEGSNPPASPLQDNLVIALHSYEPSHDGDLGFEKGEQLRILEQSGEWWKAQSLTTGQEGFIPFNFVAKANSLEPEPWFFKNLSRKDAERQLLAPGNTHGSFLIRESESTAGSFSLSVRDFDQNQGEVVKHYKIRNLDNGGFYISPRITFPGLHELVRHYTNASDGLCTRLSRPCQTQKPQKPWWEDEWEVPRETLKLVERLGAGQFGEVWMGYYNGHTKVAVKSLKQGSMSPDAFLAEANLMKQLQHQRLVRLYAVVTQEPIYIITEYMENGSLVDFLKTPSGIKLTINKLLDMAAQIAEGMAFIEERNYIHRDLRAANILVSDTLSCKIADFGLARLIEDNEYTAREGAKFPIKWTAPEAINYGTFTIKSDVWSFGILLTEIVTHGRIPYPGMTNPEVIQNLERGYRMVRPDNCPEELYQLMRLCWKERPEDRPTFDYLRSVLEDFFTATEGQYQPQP

Take `CO[C@]1(CO)C[C@H]2O[C@]1(C)n1c3ccccc3c3c4c(c5c6ccccc6n2c5c31)C(=O)NC4` [CEP-75 1]: the “apoptosis of prostate cancer cells and osteoblasts” value in data set [1] is listed as “selectively induce apoptosis”.
In the case of `COc1cc2ncnc(Nc3ccc(O)c(Br)c3)c2cc1OC` [WHI-P 154, 4-(3′-bromo-4′-hydroxylphenyl)-amino-6,7-dimethoxyquinazoline], the JAK3 inhibition result on JAK3 was “inhibited JAK3”.
`COc1cccc(-c2cc(=O)c3ccccc3o2)c1N` [PD98059]: in the data set on ERK5, the ERK5/BMK1 pathway inhibition result was “inhibited”. In the data set on ERK1/2 pathway, the “cyclin D1 expression and cell proliferation” value was “prevented cyclin D1 expression and inhibits cell proliferation”.
In the case of `Oc1cc(O)cc(/C=C/c2ccc(O)c(O)c2)c1` [Piceatannol, 3,4,3′,5′-tetrahydroxy-trans-stilbene], the “FceRI-mediated IP3 production, serotonin secretion, membrane ruffling and cell spreading” value with Syk [2] (by inhibiting Syk) is listed as “inhibits”.
Consider `C=CC(=O)Nc1cc2c(Nc3ccc(F)c(Cl)c3)ncnc2cc1OCCCN1CCOCC1` [CI-1033], for which, in data set [3], the “inhibition of tyrosine kinase activity” value was “prompt, potent, and sustained inhibition”. Also, the “inhibition of tyrosine kinase activity of other receptors” value in data set [4] is listed as “without inhibiting”.
In the case of `Cc1ccc2c(=O)c3ccccc3n(CCCN)c2c1C.O=C(O)C(=O)O` [ER-27319, 3,4-dimethyl-10-(3-aminopropyl)-9-acridone oxalate], the “FceRI-mediated degranulation, tyrosine phosphorylation of Syk” value in the data set with Syk [2] (intact mast cells, not Lyn) was “inhibits”.
On to `N#CC(=C(/N)Sc1ccccc1N)/C(C#N)=C(\N)Sc1ccccc1N` [U0126], for which, in the data set with ERK5, the ERK5/BMK1 pathway inhibition result is on record as “inhibited”. For the same compound, the “cyclin D1 expression and cell proliferation” value in the data set on ERK1/2 pathway is “prevented cyclin D1 expression and inhibits cell proliferation”.
As for `COc1cc2ncnc(Nc3cc(Br)c(O)c(Br)c3)c2cc1OC` [WHI-P97, 4-(3′,5′-dibromo-4′-hydroxylphenyl)-amino-6,7-dimethoxyquinazoline], the JAK3 inhibition entry at JAK3 is “inhibited JAK3”.
Turning to `Cc1ccc(NC(=O)c2ccc(CN3CCN(C)CC3)cc2)cc1Nc1nccc(-c2cccnc2)n1` [Imatinib mesylate], the complete cytogenetic response is 14% in the data set on CML patients (accelerated phase CML), 5% in the data set on CML patients (blast phase CML) and 30% with CML patients (chronic phase CML). The “complete cytogenetic response maintained for four weeks” value with CML patients (accelerated phase CML) is reported as 4%; in the data set with CML patients (blast phase CML), 1%; in the data set on CML patients (chronic phase CML) it was 16%. In addition, the remissions in the data set on CML patients (accelerated phase CML patients) is recorded as 63%; in the data set on CML patients (blast phase patients) it was 26%. In addition, the complete hematologic response in the data set on CML patients (setting [6]) is listed as 88%. For the same compound, in the data set with CML patients (setting [6]), the major cytogenetic response is given as 49%.
With `Cc1[nH]c(/C=C2\C(=O)Nc3ccccc32)c(C)c1CCC(=O)O` [SU6668], in the data set on tumor microvessels, the “time to apoptosis in tumor microvessels after initiation of treatment” value is recorded as no more than 6 h and the “time to dose-dependent decreases in tumor microvessel density after first treatment” value was no more than 3 days.
In the case of `C[C@]12O[C@H](C[C@]1(O)CO)n1c3ccccc3c3c4c(c5c6ccccc6n2c5c31)CNC4=O` [CEP-701], in data set [1], the “apoptosis of prostate cancer cells and osteoblasts” value is recorded as “selectively induce apoptosis”.
In the case of KLILFLLL, the “inhibition of ZAP-70” value with ZAP-70 is on record as “competitive inhibitor”. Also, the “inhibition of Syk” value with Syk [5] is reported as “poor inhibitor”. In the data set with Lck, the “inhibition of Lck” value is given as “poor inhibitor”.
In the case of `O=C(NOCC1CC1)c1ccc(F)c(F)c1Nc1ccc(I)cc1Cl` [PD184352], the ERK1 activity entry in the data set on ERK1 is “abolished”. The “effect on ERK5” value with ERK5 (low doses) is “no effect”.
